Assay [1] deals with HCT116 colorectal cancer cells. The assay can be described thus: Cisplatin Sensitization Assay (96 h cell viability MTS). Type of assay: cell-based. The conditions noted are these: concentration of compound required to reduce the IC50 of Cisplatin alone by at least 3-fold; HCT116, 96 h MTS. Here is the method: Compounds can be screened for their ability to sensitize HCT116 colorectal cancer cells to Cisplatin using a 96 h cell viability (MTS) assay. […] Compounds and Cisplatin are then both added simultaneously to the cell media in 2-fold serial dilutions from a top final concentration of 10 μM as a full matrix of concentrations in a final cell volume of 200 μl, and the cells are then incubated at 37° C. in 5% CO2. After 96 h, 40 μl of MTS reagent (Promega G358a) is added to each well and the cells are incubated for 1 h at 37° C. in 5% CO2. Finally, absorbance is measured at 490 nm using a SpectraMax Plus 384 reader (Molecular Devices) and the concentration of compound required to reduce the IC50 of Cisplatin alone by at least 3-fold (to 1 decimal place) can be reported.
Compounds with a Cisplatin sensitization value of <0.02 μM are marked with “+++.” Compounds with a Cisplatin sensitization value>0.02 μM but <0.2 μM are marked with “++.” Compounds with a Cisplatin sensitization value >0.2 μM but <5 μM are marked with “+.”

The next assay addresses T1, ATR kinase (Homo sapiens, UniProt Q13535).
T1 construct: Assays were carried out at 25° C. in the presence of 5 nM full-length ATR
The assay can be described thus: ATR Inhibition Assay (radioactive-phosphate incorporation). Type of assay: biochemical. To be noted: Ki(app); 5 nM full-length ATR, 10 μM ATP, 800 μM target peptide, 25° C. Here is the method:
Compounds were screened for their ability to inhibit ATR kinase using a radioactive-phosphate incorporation assay. Assays were carried out in a mixture of 50 mM Tris/HCl (pH 7.5), 10 mM MgCl2 and 1 mM DTT. Final substrate concentrations were 10 μM [γ-33P]ATP (3 mCi 33P ATP/mmol ATP, Perkin Elmer) and 800 μM target peptide (ASELPASQPQPFSAKKK (SEQ. ID NO: 1)).
Assays were carried out at 25° C. in the presence of 5 nM full-length ATR. An assay stock buffer solution was prepared containing all of the reagents listed above, with the exception of ATP and the test compound of interest. 13.5 μL of the stock solution was placed in a 96 well plate followed by addition of 2 μL of DMSO stock containing serial dilutions of the test compound (typically starting from a final concentration of 15 μM with 3-fold serial dilutions) in duplicate (final DMSO concentration 7%). The plate was pre-incubated for 10 minutes at 25° C. and the reaction initiated by addition of 15 μL [γ-33P]ATP (final concentration 10 μM).
The reaction was stopped after […] by the addition of 30 μL, 0.1M phosphoric acid containing 2 mM ATP. A multiscreen phosphocellulose filter 96-well plate (Millipore, Cat no. MAPHN0B50) was pretreated with 100 μL 0.2M phosphoric acid prior to the addition of 45 μL of the stopped assay mixture. The plate was washed with 5×200 μL 0.2M phosphoric acid. After drying, 100 μL Optiphase ‘SuperMix’ liquid scintillation cocktail (Perkin Elmer) was added to the well prior to scintillation counting (1450 Microbeta Liquid Scintillation Counter, Wallac).
After removing mean background values for all of the data points, Ki(app) data were calculated from non-linear regression analysis of the initial rate data using the Prism software package (GraphPad Prism version 3.0cx for Macintosh, GraphPad Software, San Diego Calif., USA).
Compounds with a Ki value of <0.01 μM are marked with “+++.” Compounds with a Ki value >0.01 μM but <1 μM are marked with “++.” Compounds with a Ki value >1 μM but <5 μM are marked with “+.”

T1 sequence (Q13535 whole entry): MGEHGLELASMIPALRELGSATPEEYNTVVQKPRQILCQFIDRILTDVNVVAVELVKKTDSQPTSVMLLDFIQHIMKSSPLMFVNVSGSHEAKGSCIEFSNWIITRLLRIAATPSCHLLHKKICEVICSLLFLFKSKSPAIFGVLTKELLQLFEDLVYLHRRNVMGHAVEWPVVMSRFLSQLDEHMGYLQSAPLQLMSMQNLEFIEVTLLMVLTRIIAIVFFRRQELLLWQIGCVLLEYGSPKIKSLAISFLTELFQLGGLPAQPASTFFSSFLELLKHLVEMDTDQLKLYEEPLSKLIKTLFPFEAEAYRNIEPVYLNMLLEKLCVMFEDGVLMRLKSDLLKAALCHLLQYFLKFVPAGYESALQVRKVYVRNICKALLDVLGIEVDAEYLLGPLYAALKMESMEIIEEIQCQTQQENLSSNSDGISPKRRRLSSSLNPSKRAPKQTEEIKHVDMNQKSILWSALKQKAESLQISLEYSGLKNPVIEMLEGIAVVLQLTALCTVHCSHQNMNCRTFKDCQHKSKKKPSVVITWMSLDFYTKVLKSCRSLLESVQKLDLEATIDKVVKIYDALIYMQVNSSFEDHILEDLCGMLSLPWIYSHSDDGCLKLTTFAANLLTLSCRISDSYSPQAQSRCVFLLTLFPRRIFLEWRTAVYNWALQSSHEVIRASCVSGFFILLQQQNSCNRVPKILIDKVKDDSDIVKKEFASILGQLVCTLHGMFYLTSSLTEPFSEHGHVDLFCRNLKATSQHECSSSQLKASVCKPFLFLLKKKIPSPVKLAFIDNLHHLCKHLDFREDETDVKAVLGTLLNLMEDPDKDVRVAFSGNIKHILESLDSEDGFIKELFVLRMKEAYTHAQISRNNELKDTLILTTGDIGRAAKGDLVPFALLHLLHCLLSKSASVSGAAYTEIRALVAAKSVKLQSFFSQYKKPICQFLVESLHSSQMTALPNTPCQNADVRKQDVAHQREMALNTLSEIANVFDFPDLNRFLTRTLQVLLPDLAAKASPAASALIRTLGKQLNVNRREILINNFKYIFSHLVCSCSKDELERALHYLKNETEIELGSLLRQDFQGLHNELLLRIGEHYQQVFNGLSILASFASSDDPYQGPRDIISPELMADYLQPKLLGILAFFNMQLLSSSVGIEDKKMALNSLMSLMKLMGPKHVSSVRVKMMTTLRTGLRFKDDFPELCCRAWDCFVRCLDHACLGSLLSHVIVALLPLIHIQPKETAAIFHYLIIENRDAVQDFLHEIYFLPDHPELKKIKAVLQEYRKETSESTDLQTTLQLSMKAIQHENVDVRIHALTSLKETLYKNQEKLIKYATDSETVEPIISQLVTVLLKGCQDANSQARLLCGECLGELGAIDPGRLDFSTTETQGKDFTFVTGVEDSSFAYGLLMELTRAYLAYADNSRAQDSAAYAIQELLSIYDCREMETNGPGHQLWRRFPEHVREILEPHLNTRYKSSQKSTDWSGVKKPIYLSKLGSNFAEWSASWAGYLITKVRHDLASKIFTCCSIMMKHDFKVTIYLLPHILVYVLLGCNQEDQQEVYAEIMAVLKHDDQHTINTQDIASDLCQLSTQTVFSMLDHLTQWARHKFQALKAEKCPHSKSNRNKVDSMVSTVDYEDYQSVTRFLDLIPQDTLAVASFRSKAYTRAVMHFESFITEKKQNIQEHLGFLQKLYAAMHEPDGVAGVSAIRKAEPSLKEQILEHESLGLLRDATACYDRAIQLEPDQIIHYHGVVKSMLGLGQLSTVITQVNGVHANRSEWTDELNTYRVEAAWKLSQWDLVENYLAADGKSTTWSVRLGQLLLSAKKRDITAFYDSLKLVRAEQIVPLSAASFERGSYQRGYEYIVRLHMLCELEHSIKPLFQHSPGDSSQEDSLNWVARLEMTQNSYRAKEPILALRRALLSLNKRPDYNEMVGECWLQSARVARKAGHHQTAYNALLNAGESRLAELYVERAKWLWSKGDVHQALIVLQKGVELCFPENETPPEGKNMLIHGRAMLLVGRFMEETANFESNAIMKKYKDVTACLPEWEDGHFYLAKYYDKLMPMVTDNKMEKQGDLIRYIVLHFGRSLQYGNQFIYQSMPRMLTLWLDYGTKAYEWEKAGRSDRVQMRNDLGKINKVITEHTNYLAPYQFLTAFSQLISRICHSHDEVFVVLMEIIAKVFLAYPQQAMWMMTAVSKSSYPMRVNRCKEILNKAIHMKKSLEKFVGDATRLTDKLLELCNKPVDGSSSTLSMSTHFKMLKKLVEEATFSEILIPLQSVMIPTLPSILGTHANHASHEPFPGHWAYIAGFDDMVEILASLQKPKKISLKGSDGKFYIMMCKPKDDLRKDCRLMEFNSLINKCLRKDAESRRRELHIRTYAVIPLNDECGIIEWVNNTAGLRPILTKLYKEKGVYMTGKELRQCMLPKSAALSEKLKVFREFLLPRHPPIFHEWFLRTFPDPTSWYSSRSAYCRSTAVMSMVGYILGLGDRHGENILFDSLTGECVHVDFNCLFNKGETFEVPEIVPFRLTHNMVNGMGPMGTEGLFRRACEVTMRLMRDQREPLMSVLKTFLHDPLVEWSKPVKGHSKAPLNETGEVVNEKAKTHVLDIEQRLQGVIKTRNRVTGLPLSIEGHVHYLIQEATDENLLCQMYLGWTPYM

As to `CN(C)CCCOc1ccncc1NC(=O)c1c(N)nn2ccc(C(F)(F)F)nc12` [I-O-27, 2-amino-N-(4-(3-(dimethylamino)propoxy)pyridin-3-yl)-5-(trifluoromethyl)pyrazolo[1,5-a]pyrimidine-3-carboxamide], the “Synergy with Cisplatin” value in assay [1] is given as “++ (Compounds with a Cisplatin sensitization value>0.02 μM but <0.2 μM are marked with “++.”)”. The Ki at ATR kinase was 10 to 1000 nM.
Take `COc1cc(C)ncc1NC(=O)c1c(N)nn2ccc(C(F)(F)F)nc12` [I-O-46, 2-amino-N-(4-methoxy-6-methylpyridin-3-yl)-5-(trifluoromethyl)pyrazolo[1,5-a]pyrimidine-3-carboxamide]: the “Synergy with Cisplatin” value in assay [1] was “++ (Compounds with a Cisplatin sensitization value>0.02 μM but <0.2 μM are marked with “++.”)”. At ATR kinase, the Ki is 10 to 1000 nM.
The matching figures for `CN(C)CCOc1ccncc1NC(=O)c1c(N)nn2ccc(C(F)(F)F)nc12` [I-O-17, 2-amino-N-(4-(2-(dimethylamino)ethoxy)pyridin-3-yl)-5-(trifluoromethyl)pyrazolo[1,5-a]pyrimidine-3-carboxamide]: “++ (Compounds with a Cisplatin sensitization value>0.02 μM but <0.2 μM are marked with “++.”)” and 10 to 1000 nM.
For `Nc1nn2ccc(C(F)(F)F)nc2c1C(=O)Nc1cnccc1OC1CC2(CCN2)C1` (centres unmarked) [I-O-22, N-(4-((4s,6r)-1-azaspiro[3.3]heptan-6-yloxy)pyridin-3-yl)-2-amino-5-(trifluoromethyl)pyrazolo[1,5-a]pyrimidine-3-carboxamide], the “Synergy with Cisplatin” value in assay [1] is “++ (Compounds with a Cisplatin sensitization value>0.02 μM but <0.2 μM are marked with “++.”)”. On ATR kinase, the Ki lay within 10 to 1000 nM.
Take `COc1ccncc1NC(=O)c1c(N)nn2ccc(NCCN(C)C)nc12` [I-O-70, 2-amino-5-((2-(dimethylamino)ethyl)amino)-N-(4-methoxypyridin-3-yl)pyrazolo[1,5-a]pyrimidine-3-carboxamide]: the “Synergy with Cisplatin” value in assay [1] is reported as “+ (Compounds with a Cisplatin sensitization value >0.2 μM but <5 μM are marked with “+.”)”. For the same compound, the Ki on ATR kinase fell in the range of 10 to 1000 nM.
Consider `COc1ccncc1NC(=O)c1c(N)nn2ccc(N3CCNC(C)C3)nc12` (centres unmarked) [I-O-77, 2-amino-N-(4-methoxypyridin-3-yl)-5-(3-methylpiperazin-1-yl)pyrazolo[1,5-a]pyrimidine-3-carboxamide], for which the “Synergy with Cisplatin” value in assay [1] was “++ (Compounds with a Cisplatin sensitization value>0.02 μM but <0.2 μM are marked with “++.”)”. Besides, the Ki at ATR kinase was 10 to 1000 nM.
On the same counts, the results for `CN1CC[C@H](Oc2ccncc2NC(=O)c2c(N)nn3ccc(C(F)(F)F)nc23)C1` [I-O-40, (S)-2-amino-N-(4-((1-methylpyrrolidin-3-yl)oxy)pyridin-3-yl)-5-(trifluoromethyl)pyrazolo[1,5-a]pyrimidine-3-carboxamide] are “++ (Compounds with a Cisplatin sensitization value>0.02 μM but <0.2 μM are marked with “++.”)” and 10 to 1000 nM.
The matching figures for `Nc1nn2ccc(C(F)(F)F)nc2c1C(=O)Nc1cnccc1O[C@@H]1CCNC1` [I-O-25, (R)-2-amino-N-(4-(pyrrolidin-3-yloxy)pyridin-3-yl)-5-(trifluoromethyl)pyrazolo[1,5-a]pyrimidine-3-carboxamide]: “++ (Compounds with a Cisplatin sensitization value>0.02 μM but <0.2 μM are marked with “++.”)” and 10 to 1000 nM.
The matching figures for `CN(C)CCOCCOc1ccncc1NC(=O)c1c(N)nn2ccc(C(F)(F)F)nc12` [I-O-36, 2-amino-N-(4-(2-(2-(dimethylamino)ethoxy)ethoxy)pyridin-3-yl)-5-(trifluoromethyl)pyrazolo[1,5-a]pyrimidine-3-carboxamide]: “++ (Compounds with a Cisplatin sensitization value>0.02 μM but <0.2 μM are marked with “++.”)” and 10 to 1000 nM.
As to `CN1CCC(Oc2ccncc2NC(=O)c2c(N)nn3ccc(C(F)(F)F)nc23)CC1` [I-O-31, 2-amino-N-(4-((1-methylpiperidin-4-yl)oxy)pyridin-3-yl)-5-(trifluoromethyl)pyrazolo[1,5-a]pyrimidine-3-carboxamide], in assay [1], the “Synergy with Cisplatin” value is on record as “++ (Compounds with a Cisplatin sensitization value>0.02 μM but <0.2 μM are marked with “++.”)”. The Ki at ATR kinase was in the range of 10 to 1000 nM.
The matching figures for `CN1CCC(Oc2c(Cl)cncc2NC(=O)c2c(N)nn3ccc(C(F)(F)F)nc23)CC1` [I-O-49, 2-amino-N-(5-chloro-4-((1-methylpiperidin-4-yl)oxy)pyridin-3-yl)-5-(trifluoromethyl)pyrazolo[1,5-a]pyrimidine-3-carboxamide]: “+ (Compounds with a Cisplatin sensitization value >0.2 μM but <5 μM are marked with “+.”)” and 1000 to 5000 nM.
For the compound `CN1CCC[C@H]1COc1ccncc1NC(=O)c1c(N)nn2ccc(C(F)(F)F)nc12` [I-O-33, (S)-2-amino-N-(4-((1-methylpyrrolidin-2-yl)methoxy)pyridin-3-yl)-5-(trifluoromethyl)pyrazolo[1,5-a]pyrimidine-3-carboxamide], the “Synergy with Cisplatin” value in assay [1] is listed as “++ (Compounds with a Cisplatin sensitization value>0.02 μM but <0.2 μM are marked with “++.”)”. For the same compound, the Ki on ATR kinase was 10 to 1000 nM.
As for `Nc1nn2ccc(C(F)(F)F)nc2c1C(=O)Nc1cnccc1OC1CCC1` [I-O-5, 2-amino-N-(4-cyclobutoxypyridin-3-yl)-5-(trifluoromethyl)pyrazolo[1,5-a]pyrimidine-3-carboxamide], in assay [1], the “Synergy with Cisplatin” value was “+++ (Compounds with a Cisplatin sensitization value of <0.02 μM are marked with “+++.”)”. In addition, the Ki at ATR kinase was in the range of 10 to 1000 nM.
On to `Cc1ccncc1NC(=O)c1c(N)nn2ccc(OCCN(C)C)nc12` [I-C-3, 2-amino-5-(2-(dimethylamino)ethoxy)-N-(4-methylpyridin-3-yl)pyrazolo[1,5-a]pyrimidine-3-carboxamide], for which, in assay [1], the “Synergy with Cisplatin” value is given as “++ (Compounds with a Cisplatin sensitization value>0.02 μM but <0.2 μM are marked with “++.”)”. Besides, the Ki at ATR kinase lay within 1000 to 5000 nM.
The matching figures for `Nc1nn2ccc(C(F)(F)F)nc2c1C(=O)Nc1cnccc1OC1CCNCC1` [I-O-41, 2-amino-N-(4-(piperidin-4-yloxy)pyridin-3-yl)-5-(trifluoromethyl)pyrazolo[1,5-a]pyrimidine-3-carboxamide]: “++ (Compounds with a Cisplatin sensitization value>0.02 μM but <0.2 μM are marked with “++.”)” and 10 to 1000 nM.
Consider `CN(C)C1CCC(COc2ccncc2NC(=O)c2c(N)nn3ccc(C(F)(F)F)nc23)CC1` (centres unmarked) [I-O-42, 2-amino-N-(4-((4-(dimethylamino)cyclohexyl)methoxy)pyridin-3-yl)-5-(trifluoromethyl)pyrazolo[1,5-a]pyrimidine-3-carboxamide], for which the “Synergy with Cisplatin” value in assay [1] is “+++ (Compounds with a Cisplatin sensitization value of <0.02 μM are marked with “+++.”)”. Further, the Ki on ATR kinase lay in the range of 10 to 1000 nM.
The matching figures for `COc1ccncc1NC(=O)c1c(N)nn2ccc(C(F)(F)F)nc12` [I-O-1, 2-amino-N-(4-methoxypyridin-3-yl)-5-(trifluoromethyl)pyrazolo[1,5-a]pyrimidine-3-carboxamide]: “+++ (Compounds with a Cisplatin sensitization value of <0.02 μM are marked with “+++.”)” and under 10 nM.
As for `CN(C)C1CCC(Oc2ccncc2NC(=O)c2c(N)nn3ccc(C(F)(F)F)nc23)CC1` (centres unmarked) [I-O-44, 2-amino-N-(4-(((1s,4s)-4-(dimethylamino)cyclohexyl)oxy)pyridin-3-yl)-5-(trifluoromethyl)pyrazolo[1,5-a]pyrimidine-3-carboxamide], in assay [1], the “Synergy with Cisplatin” value is recorded as “+ (Compounds with a Cisplatin sensitization value >0.2 μM but <5 μM are marked with “+.”)”. The Ki at ATR kinase is 1000 to 5000 nM.
In the case of `COc1ccncc1NC(=O)c1c(N)nn2ccc(OCCN3CCCC3)nc12` [I-O-60, 2-amino-N-(4-methoxypyridin-3-yl)-5-(2-(pyrrolidin-1-yl)ethoxy)pyrazolo[1,5-a]pyrimidine-3-carboxamide], the “Synergy with Cisplatin” value in assay [1] is listed as “++ (Compounds with a Cisplatin sensitization value>0.02 μM but <0.2 μM are marked with “++.”)”. Moreover, at ATR kinase, the Ki lay within 10 to 1000 nM.

The values are drawn from patent US8969360B2, “Compounds useful as inhibitors of ATR kinase” (Vertex Pharmaceuticals Incorporated, priority 2013, dated 2015).
